Results on four compounds are retold here after paper PMC8088928 (Cancer Science, 2021).

One test concerns MKN‐45 cells. Kind of test: CCK‐8 cytotoxicity / proliferation assay. The class given is cell-based, human. To be noted: for IC50: Homo sapiens, MKN-45, 72 h, read-out: IC50 (cytotoxic activity); for Effect on proliferation of tumor cells (in words): MKN‐45 cells, 72 h, CCK‐8.
In the next test the target is Human PD‐L1 Fc Protein (Homo sapiens, UniProt Q9NZQ7). In words: Microscale thermophoresis. The class given is binding. In general terms: In MST a laser heats a spot of the sample, and binding alters the fluorescence response.
The target of test [1] is Recombinant Human Her2/ErbB2 Protein (Homo sapiens, UniProt P04626). In words: Microscale thermophoresis. The class given is binding.
For another test, the target named is HER2 kinase (Homo sapiens, UniProt P04626). In words: Enzyme activity assay of HER2. In kind it is biochemical.
Sequence of HER2 kinase (P04626 23-1255): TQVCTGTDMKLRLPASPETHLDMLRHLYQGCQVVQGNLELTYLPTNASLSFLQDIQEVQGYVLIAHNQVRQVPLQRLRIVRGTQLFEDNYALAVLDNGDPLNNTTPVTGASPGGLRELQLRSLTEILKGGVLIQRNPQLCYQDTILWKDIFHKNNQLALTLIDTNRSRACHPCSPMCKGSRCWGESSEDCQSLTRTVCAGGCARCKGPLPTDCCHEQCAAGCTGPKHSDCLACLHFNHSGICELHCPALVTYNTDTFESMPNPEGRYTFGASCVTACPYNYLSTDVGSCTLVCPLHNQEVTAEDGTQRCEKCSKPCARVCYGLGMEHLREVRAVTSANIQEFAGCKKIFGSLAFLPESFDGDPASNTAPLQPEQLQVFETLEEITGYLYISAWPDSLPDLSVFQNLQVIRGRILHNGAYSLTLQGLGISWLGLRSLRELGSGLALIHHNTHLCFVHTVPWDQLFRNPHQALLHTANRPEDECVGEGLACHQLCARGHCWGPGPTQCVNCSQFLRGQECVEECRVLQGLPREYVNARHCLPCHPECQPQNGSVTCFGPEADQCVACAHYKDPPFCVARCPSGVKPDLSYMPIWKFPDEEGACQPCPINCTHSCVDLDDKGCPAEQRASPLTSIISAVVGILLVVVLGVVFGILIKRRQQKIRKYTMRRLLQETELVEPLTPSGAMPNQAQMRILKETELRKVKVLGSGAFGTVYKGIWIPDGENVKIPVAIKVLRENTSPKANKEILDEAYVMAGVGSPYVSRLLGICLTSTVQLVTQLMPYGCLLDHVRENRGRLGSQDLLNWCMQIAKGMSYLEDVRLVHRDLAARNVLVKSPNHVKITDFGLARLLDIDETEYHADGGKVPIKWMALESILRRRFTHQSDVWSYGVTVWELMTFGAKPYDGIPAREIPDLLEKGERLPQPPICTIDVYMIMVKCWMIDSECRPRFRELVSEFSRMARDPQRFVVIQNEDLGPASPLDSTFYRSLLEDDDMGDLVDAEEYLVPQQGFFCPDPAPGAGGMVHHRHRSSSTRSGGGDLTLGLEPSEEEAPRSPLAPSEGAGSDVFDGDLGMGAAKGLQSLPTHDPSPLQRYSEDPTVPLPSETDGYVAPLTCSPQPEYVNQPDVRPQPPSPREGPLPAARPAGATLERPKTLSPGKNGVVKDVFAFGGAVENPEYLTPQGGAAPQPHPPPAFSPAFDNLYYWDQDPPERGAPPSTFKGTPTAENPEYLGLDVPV

Sequence of Human PD‐L1 Fc Protein (Q9NZQ7 19-238 limits assumed): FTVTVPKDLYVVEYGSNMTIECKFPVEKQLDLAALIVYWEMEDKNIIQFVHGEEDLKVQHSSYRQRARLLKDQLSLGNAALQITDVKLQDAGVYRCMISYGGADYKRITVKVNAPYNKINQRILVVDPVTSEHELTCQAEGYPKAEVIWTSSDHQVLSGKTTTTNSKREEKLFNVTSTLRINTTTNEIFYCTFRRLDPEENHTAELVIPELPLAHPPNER
Sequence of Recombinant Human Her2/ErbB2 Protein (P04626 23-1255): as the sequence (P04626 23-1255) above

Take `COc1cc(-c2oc3cc(O)cc(O)c3c(=O)c2O)ccc1O` [Isorhamnetin]: in the test with MKN‐45 cells, the IC50 – broadly, the concentration at which inhibition is half-maximal – was found to be 10.8 µM and the “Effect on proliferation of tumor cells (in words)” value (“Effect on proliferation” below) is reported as “potential antiproliferative effects”. For the same compound, on Human PD‐L1 Fc Protein, the Kd (commonly the concentration at which binding is half-saturated) was 0.667 µM.

With `O=c1c(-c2ccc(O)cc2)coc2cc(O)ccc12` [Daidzein], in the test with MKN‐45 cells, the IC50 was determined as 21.5 µM and the “Effect on proliferation” value is given as “potential antiproliferative effects”. In test [1], the Kd was determined as 3.7 µM.

As for `O=c1c(O)c(-c2ccc(O)c(O)c2)oc2cc(O)cc(O)c12` [Quercetin], in the test on MKN‐45 cells, the IC50 came out at 19.3 µM and the “Effect on proliferation” value was “potential antiproliferative effects”. Also, the Kd in test [1] turned out to be 0.49 µM. At HER2 kinase, this compound returned an IC50 of 0.57 µM.

In the case of `COc1ccc(-c2coc3cc(O)ccc3c2=O)cc1` [Formononetin], the “Effect on proliferation” value with MKN‐45 cells is “could not inhibit proliferation of tumor cells”. Also, on Human PD‐L1 Fc Protein, the affinity, expressed as Kd, was 0.355 µM.
